Test results published in patent US5219741A, “Method of making L-proline using an N-acyl-L-protine acylase” (priority 1990, dated 1993).
“Also recorded” adds a separate entry of the source. Where two headings read alike, the source gives them in different places.

Tests used:
Type in all cases: biochemical, Comamonas testosteroni DSM 5416
[1] = system: 1,10-phenanthroline-inactivated acylase (apoenzyme); experiment: Influence of cations on the 1,10-phenanthroline-inactivated acylase; conditions: for Influence on the apoenzyme (in words): 1,10-phenanthroline-inactivated acylase
Method: FPLC/Mono Q purified enzyme was incubated for 24 hours at 4° C. in the presence of 1 mM 1,10-phenanthroline. Subsequently, enzyme and the chelating agent 1,10-phenanthroline were separated by gel filtration via Sephadex G-25M (PD-10, firm Pharmacia/LKB, Uppsala, Sweden). The enzyme-containing fractions were combined and the activity determined without and in the presence of various cations (1 mM).

N-acyl-L-proline acylase [2] = conditions: for Activity (%): no agent = 100
Method: The enzymatic reaction was interrupted by pipetting 50 μl of the enzyme sample into 1.25 ml 100% acetic acid. Subsequently, 0.45 ml 0.1M tris-HCl buffer pH 7.0 and 1.25 ml ninhydrin reagent (3 g ninhydrin dissolved by heating in a mixture of 60 ml 100% acetic acid and 40 ml 6M phosphoric acid) were added. The ninhydrin reagent was freshly prepared daily. The test tubes were loosely closed with screw-on caps, incubated 30 minutes at 100° C. and subsequently cooled down in an ice bath.
The L-proline, liberated by the enzymatic hydrolysis, forms a red dye with ninhydrin at 100° C. The absorption of the red dye was measured in a spectrophotometer at 480 nm relative to a control batch without crude extract (=substrate blank). The concentration of the L-proline produced was determined using a straight calibration line with L-proline in a range of 5 to 100 nmoles per 50 μl specimen. The enzyme activity was indicated in international units; thus, one unit (U) corresponded to an amount of 1 μmole L-proline produced per minute.
The influence of various chemical agents as well as metal cations and anions on the reaction speed of the hydrolytic splitting of N-acetyl-L-proline was determined at 30° C. in a reaction batch with the following composition: […]
The enzyme was pre-incubated for 10 minutes at 30° C. with the compound before the addition of substrate to start the reaction.
The enzyme was pre-incubated for 10 minutes at 30° C. with the agent before the substrate was added to start the reaction.
The enzyme was pre-incubated 10 minutes at 30° C. with the agent before the substrate was added to start the reaction. The concentration of the anions was 10 mM in each instance.

N-acyl-L-proline acylase [3] = experiment: Substrate specificity: hydrolysis of N-acyl amino acids and proline derivatives
Method: The activity of acylase was determined with various N-acetyl-L-amino acids and N-chloroacetyl-L-amino acids in a reaction batch with the following composition:
The reaction temperature was 30° C. and the incubation time 15 minutes to 24 hours. 0.2 ml samples of the reaction batch in each instance were mixed at different times with 0.2 ml 10% (w/v) trichloroacetic acid and the denatured protein centrifuged off for 10 minutes at 11,000 rpms in a table centrifuge. The supernatant was diluted with a 0.1M Na citrate buffer pH 2.2 with 25% (v/v) 2.2-thiodiethanol and 0.1% (v/v) phenol 1:5 and 1:50 respectively. The amino acids released were quantitatively detected by an amino-acid analyzer LC 5001 of the firm Biotronic, Maintal, Federal Republic of Germany. In Table 16, the substrates marked with * and the corresponding products were quantified by means of HPLC.
The activity of the acylase was determined with various proline derivatives as under a).

N-acyl-L-proline acylase [4] = experiment: Stereospecificity of hydrolysis of N-acetyl-D,L-proline; conditions: for L-proline (mmol/l) produced: substrate 10 mmol/l, two hours at 30° C., pH 7.0
Method: The hydrolysis of N-acyl-L-proline, N-acetyl-D,L-proline and N-acetyl-D-proline was determined in the following reaction mixture:
The reaction mixture was incubated for two hours at 30° C. and the L-proline produced was determined by amino acid analysis as in Example 10.

[5] = inactivated enzyme after gel filtration + cation 1 mM, native enzyme = 100, no agent = 21
[6] = metal cation salt 1 mM, native enzyme
[7] = metal cation salt 10 mM, native enzyme

## O=S(=O)([O-])[O-].[Cu+2] [CuSO4]
[1]
  Influence on the apoenzyme (in words): inhibited
[1]; [5]
  Activity (%): 6%
N-acyl-L-proline acylase [2]; [6]
  Activity (%): 61%
N-acyl-L-proline acylase [2]; [7]
  Activity (%): 19%
N-acyl-L-proline acylase [2]; native enzyme
  Influence on the acylase activity (in words): inhibiting action

## [Cl-].[Cl-].[Mg+2] [MgCl2]
[1]; [5]
  Activity (%): 25%
N-acyl-L-proline acylase [2]; [6]
  Activity (%): 106%
N-acyl-L-proline acylase [2]; [7]
  Activity (%): 99%

## O=[N+]([O-])[O-].O=[N+]([O-])[O-].[Ni+2] [Ni(NO3)2]
[1]; [5]
  Activity (%): 21%
N-acyl-L-proline acylase [2]; [6]
  Activity (%): 94%
N-acyl-L-proline acylase [2]; [7]
  Activity (%): 75%

## [Cl-].[Cl-].[Sr+2] [SrCl2]
[1]; [5]
  Activity (%): 23%
N-acyl-L-proline acylase [2]; [6]
  Activity (%): 104%
N-acyl-L-proline acylase [2]; [7]
  Activity (%): 100%

## CC(=O)N1CCC[C@@H]1C(=O)O [N-acetyl-D-proline]
N-acyl-L-proline acylase [3]
  Hydrolysis by the acylase (in words): not hydrolized
N-acyl-L-proline acylase [3]; proline derivatives, 30° C., pH 7.0, N-acetyl-L-proline = 100%
  Relative Activity (%): 0%
N-acyl-L-proline acylase [4]
  Stereospecific hydrolysis (in words): not
  L-proline (mmol/l) produced: < 0.01 mmol/L

## [Cl][Cd][Cl] [CdCl2]
[1]; [5]
  Activity (%): 20%
N-acyl-L-proline acylase [2]; [6]
  Activity (%): 89%
N-acyl-L-proline acylase [2]; [7]
  Activity (%): 65%
N-acyl-L-proline acylase [2]; native enzyme
  Influence on the acylase activity (in words): inhibiting action

## [Cl][Hg][Cl] [HgCl2]
[1]
  Influence on the apoenzyme (in words): inhibited
[1]; [5]
  Activity (%): 6%
N-acyl-L-proline acylase [2]; [6]
  Activity (%): 67%
N-acyl-L-proline acylase [2]; [7]
  Activity (%): 9%
N-acyl-L-proline acylase [2]; native enzyme
  Influence on the acylase activity (in words): inhibiting action

## [Cl-].[Cl-].[Co+2] [CoCl2]
[1]
  Influence on the apoenzyme (in words): activating action
[1]; [5]
  Activity (%): 80%
N-acyl-L-proline acylase [2]; [6]
  Activity (%): 103%
N-acyl-L-proline acylase [2]; [7]
  Activity (%): 92%

## [Cl][Sn][Cl] [SnCl2]
[1]
  Influence on the apoenzyme (in words): inhibited
[1]; [5]
  Activity (%): 10%
N-acyl-L-proline acylase [2]; [6]
  Activity (%): 72%
N-acyl-L-proline acylase [2]; [7]
  Activity (%): 55%
N-acyl-L-proline acylase [2]; native enzyme
  Influence on the acylase activity (in words): inhibiting action

## O=S(=O)([O-])[O-].[Zn+2] [ZnSO4]
[1]
  Influence on the apoenzyme (in words): activating action
[1]; [5]
  Activity (%): 54%
N-acyl-L-proline acylase [2]; [6]
  Activity (%): 77%
N-acyl-L-proline acylase [2]; [7]
  Activity (%): 32%
N-acyl-L-proline acylase [2]; native enzyme
  Influence on the acylase activity (in words): inhibiting action

## [Ba+2].[Cl-].[Cl-] [BaCl2]
[1]; [5]
  Activity (%): 18%
N-acyl-L-proline acylase [2]; [6]
  Activity (%): 100%
N-acyl-L-proline acylase [2]; [7]
  Activity (%): 99%

## [Cl][Mn][Cl] [MnCl2]
[1]; [5]
  Activity (%): 23%
N-acyl-L-proline acylase [2]; [6]
  Activity (%): 104%
N-acyl-L-proline acylase [2]; [7]
  Activity (%): 103%

## c1cnc2c(c1)ccc1cccnc12 [1,10 phenanthroline, 1,10-phenanthroline]
[1]; enzyme incubated 24 hours at 4° C. with 1 mM 1,10-phenanthroline, before gel filtration, native enzyme = 100
  Activity (%): 2%
N-acyl-L-proline acylase [2]; chemical agent 1 mM, 10 min pre-incubation at 30° C.
  Activity (%): 27%
N-acyl-L-proline acylase [2]; chemical agent 10 mM, 10 min pre-incubation at 30° C.
  Activity (%): 1%
N-acyl-L-proline acylase [2]; native enzyme
  Influence on the acylase activity (in words): inhibiting action; also recorded: significantly inhibit

## CC(=O)N1CCCC1C(=O)O (racemic) [N-acetyl-D,L-proline]
N-acyl-L-proline acylase [4]
  L-proline (mmol/l) produced: 4.82 mmol/L

## [Cl][Fe]([Cl])[Cl] [FeCl3]
[1]; [5]
  Activity (%): 5%
N-acyl-L-proline acylase [2]; [6]
  Activity (%): 83%
N-acyl-L-proline acylase [2]; [7]
  Activity (%): 58%

## O=S(=O)([O-])[O-].[Fe+2] [FeSO4]
[1]; [5]
  Activity (%): 12%
N-acyl-L-proline acylase [2]; [6]
  Activity (%): 20%

## [Ca+2].[Cl-].[Cl-] [CaCl2]
[1]; [5]
  Activity (%): 17%
N-acyl-L-proline acylase [2]; [6]
  Activity (%): 100%
N-acyl-L-proline acylase [2]; [7]
  Activity (%): 91%
